From patent US5439892A, “Dextrin sulfates as anti HIV-1 agents and composition thereof” (ML Laboratories, priority 1990, dated 1995)
Like-named read-outs stand apart in the source and are kept apart here.

How the values were obtained:
HIV-1 (RF) [1] = assay: microbe, parasite or virus in culture; type: cell-based; details: for decrease in infectivity titre: RF
Procedure: The human T-leukamic cell line C8166 was grown in RPMI 1640 with 10% FCS.
Various strains of HIV-1 (RF. IIIB, CBL-4, Z84 and Z129) were produced in chronically infected H9 cells. A five-fold excess of uninfected H9 cells was added to the culture five days prior to harvesting the supernatant which is clarified by centrifugation and stored in liquid nitrogen.
Induction of cytopathic effects on CD4^+ C8166 by HIV was assayed by multi-nucleated giant cell formation (syncytia).
(§1) HIV-1 (RF) was titrated in 10-fold dilutions onto C8166 cells in the presence of varying concentrations of drug. […] The figures in the table represent the logarithm to the base 10 of the figure actually determined. For instance, a figure of -6 in the table represents a determined result of 10^-6.

HIV-1 (RF) [2] = type: cell-based
Description: as §1

HIV-1 IIIB = assay: decrease in infectivity titre in C8166 cells, HIV-1 IIIB; type: cell-based; details: for decrease in infectivity titre: IIIB, C8166 cells
HIV-1 CBL-4 = assay: decrease in infectivity titre in C8166 cells, HIV-1 CBL-4; type: cell-based; details: for decrease in infectivity titre: CBL-4, C8166 cells
[3] = toxicity: cell viability by [3H]-thymidine uptake in PHA-stimulated human PBL; type: cell-based; details: human, pha-stimulated pbl, 3 days, mean of quadruplicate, read-out: Thymidine uptake (% of control with no drug)
Procedure: (§2) Normal human peripheral blood lymphocytes (PBL) were fractionated on Ficoll-Hypaque (Pharmacia Chemicals, Uppsala, Sweden) from venous blood collected in preservative-free heparin. They were mitogenetically stimulated with phytohaemaglutinin (PHA) (1 ug/ml) for 3 days and maintained in the medium RPMI 1640 supplemented by 20% foetal calf serum (FCS)+interleukin-2 (IL2) ([…]).
(§3) The relative toxicities of the materials tested in example 4 were evaluated by reference to cell viability in the presence of the drugs as measured by the relative uptake of [^3 H]- thymidine. Human PBL (10^6 cells/well) in 96 microtitre plates was stimulated with PHA in the presence of increasing concentration of drug for 3 days. Following a 5 hour probe with [^3 H]- thymidine (0.5 uCi/well), the cells were harvested and counted. The results shown represent the mean of quadruplicate experiments and are presented as the percentage incorporation of [^3 H]-thymidine in the presence of drug, compared to control experiments without drug.

Human PBL = assay: as above; type: cell-based; details: around 200 ug/ml
Procedure: as §2, §3

IIIb = assay: minimum concentration inhibiting syncytia formation in M8166 JH11 cells, IIIb; type: cell-based, HIV-1; details: 10^3 TCID
Procedure: (§4) 50 ul samples of dextran sulphate and of the 2-, 3- and 6-sulphate derivatives of dextrin of Examples 3, 1 and 2 respectively were pre-incubated at 37° C. onto duplicate cultures of 4×10^5M8166 JH11 cells per ml (50 ul) at final concentrations of […] for one hour.

RF = assay: minimum concentration inhibiting syncytia formation in M8166 JH11 cells, RF; type: cell-based, HIV-1; details: for inhibitory concentration (minimum concentration at which syncytia formation was <10% that of controls): RF, 10^3 TCID, M8166 JH11 cells
Procedure: as §4

RUT = assay: minimum concentration inhibiting syncytia formation in M8166 JH11 cells, RUT; type: cell-based, HIV-1; details: 10^2 TCID
Procedure: as §4

CBL20 = assay: minimum concentration inhibiting syncytia formation in M8166 JH11 cells, CBL20; type: cell-based, HIV-1; details: 10^3 TCID
Procedure: as §4

Bovine Thrombin = assay: anti-coagulant activity: clot formation time of pooled normal plasma after bovine thrombin; type: biochemical; details: comparison among dextrin sulphates
Procedure: The materials to be tested were each dissolved in veronal buffer to a concentration of 1 mg/ml=1000 ug/ml and a further dilution of 100 ug/ml was made by a 1:10 dilution in veronal buffer. Pooled normal plasma (1 ml) was then placed into each of nine plastic tubes. The solutions containing the materials to be tested were then added to the plasma to achieve a range of final concentrations from 1-300 ug/ml, in each case the volume being made up to 1.5 ml with veronal buffer. The resultant mixtures were incubated at 37° C. for 30 minutes, following which two 0.2 ml aliquots were extracted from each sample into glass tubes (Samples A and B), and 0.1 ml 7 U Bovine Thrombin was added and clot formation timed.

HIV-1 [4] = assay: inhibition of syncytia formation, overall over IIIb, RF, RUT, CBL20; type: cell-based; details: compared with dextran sulphate (MW 8,000) and dextrin 3-sulphate
Procedure: as §4

HIV-1 [5] = assay: activity against HIV-1 virus (general statement); details: comparison among dextrin sulphates
[6] = 0.1 ug/ml, HIV-1 (RF), C8166 cells
[7] = 1.0 ug/ml, HIV-1 (RF), C8166 cells
[8] = 10 ug/ml, HIV-1 (RF), C8166 cells
[9] = 100 ug/ml, HIV-1 (RF), C8166 cells
[10] = Human immunodeficiency virus 1, C8166, read-out: decrease in infectivity titre
[11] = Human immunodeficiency virus 1, IIIB, C8166, read-out: decrease in infectivity titre

Compound	Final dilution of the virus at which syncytia are produced (logarithm to the base 10) (HIV-1 (RF) [1]; [6])	Final dilution of the virus at which syncytia are produced (logarithm to the base 10) (HIV-1 (RF) [1]; [7])	Final dilution of the virus at which syncytia are produced (logarithm to the base 10) (HIV-1 (RF) [1]; [8])	Final dilution of the virus at which syncytia are produced (logarithm to the base 10) (HIV-1 (RF) [1]; [9])	Inhibition of HIV-1 (RF), live cell (C8166) reduction of MTT, estimated visually (HIV-1 (RF) [2]; 1.0 ug/ml)	Inhibition of HIV-1 (RF), live cell (C8166) reduction of MTT, estimated visually (HIV-1 (RF) [2]; 10 ug/ml)	inhibitory concentration (minimum concentration at which syncytia formation was <10% that of controls) (IIIb)	inhibitory concentration (minimum concentration at which syncytia formation was <10% that of controls) (RF)	inhibitory concentration (minimum concentration at which syncytia formation was <10% that of controls) (RUT)	inhibitory concentration (minimum concentration at which syncytia formation was <10% that of controls) (CBL20)	anti-coagulant activity in words (Bovine Thrombin)	overall effectiveness (HIV-1 [4])	anti-HIV activity in words (HIV-1 [5])	other results
Cc1cn([C@H]2C[C@H](N=[N+]=[N-])[C@@H](CO)O2)c(=O)[nH]c1=O [AZT, zidovidine]	-4	-3.5	-3	-3	-	-								log reduction at 10 µg/mL (HIV-1 (RF) [1]; [10]): 3; log reduction at 50 µg/mL (HIV-1 (RF) [1]; [10]): 3; log reduction at 1 µg/mL (HIV-1 (RF) [1]; Human immunodeficiency virus 1, C8166, read-out: inhibition (reduction of the infectious titre)): 2.5; log reduction at 10 µg/mL (HIV-1 (RF) [1]; Human immunodeficiency virus 1, C8166, read-out: reduction of the infectious titre): 3; Inhibition of HIV-1 (RF), live cell (C8166) reduction of MTT, estimated visually (HIV-1 (RF) [2]; 0.1 ug/ml): -; log reduction at 10 µg/mL (HIV-1 IIIB; [11]): 4; log reduction at 50 µg/mL (HIV-1 IIIB; [11]): 4; log reduction at 10 µg/mL (HIV-1 CBL-4; [10]): 4; log reduction at 50 µg/mL (HIV-1 CBL-4; [10]): 4; viability at 72 h ([3]; 5 ug/ml): 20%; viability at 72 h ([3]; 10 ug/ml): 15%; viability at 72 h ([3]; 25 ug/ml): 5%; viability at 72 h ([3]; 50 ug/ml): 2%; viability at 72 h ([3]; 71 ug/ml): 1%; viability at 72 h ([3]; 100 ug/ml): 1%; viability at 72 h ([3]; 200 ug/ml): 0%; toxicity in words (Human PBL): very highly toxic
dextrin 6-sulphate							5 µg/µL	5 µg/µL	50 µg/µL	> 50 µg/µL	greater anti-coagulant activity	overall greater effectiveness		
Dextran	-6	-6	-6			-								effect against HIV replication (HIV-1 (RF) [1]; HIV-1 (RF), C8166 cells): ineffective against HIV replication
dextrin 3-sulphate							50 µg/µL	5 µg/µL	50 µg/µL	> 50 µg/µL	least anti-coagulant		relatively poor anti-HIV activity, by comparison with dextrin 2- and 6-sulphates	effectiveness against RF (RF; compared with dextran sulphate (MW 8,000)): more effective than dextran sulphate against RF
dextrin 2-sulphate		-4	-2	-2	-	-	5 µg/µL	5 µg/µL	5 µg/µL	50 µg/µL	least anti-coagulant	overall greater effectiveness	about the same activity against the HIV-1 virus as the dextrin 6sulphate	inhibition (reduction of the infectious titre) (HIV-1 (RF) [1]; 1 ug/ml, HIV-1 (RF), C8166 cells): 2 logs; reduction of the infectious titre (HIV-1 (RF) [1]; [8]): 3 logs; decrease in infectivity titre (HIV-1 (RF) [1]; 10 ug/ml, C8166 cells): 5 log units; decrease in infectivity titre (HIV-1 (RF) [1]; 50 ug/ml, C8166 cells): 6 log units; inhibition of syncytial induction on C8166 cells (HIV-1 (RF) [1]; compared with AZT and dextran sulphate): inhibits syncytial induction on C8166 cells with greater effect than either AZT or dextran sulphate; decrease in infectivity titre (HIV-1 IIIB; 10 ug/ml): 3 log units; decrease in infectivity titre (HIV-1 IIIB; 50 ug/ml): 5 log units; decrease in infectivity titre (HIV-1 CBL-4; 10 ug/ml): 0 log units; decrease in infectivity titre (HIV-1 CBL-4; 50 ug/ml): 4 log units
